In a melting point compilation (Tetko et al.; mined from patent text by program, amines drawn as free bases though some values may be those of a salt) one finds melting point data, which are given here for 35 compounds.

SMILES strings stand for the structures.

Turning to `CS(=O)(=O)c1ccc(-c2cc(/C=C/CO)nn2C2CCCCC2)cc1`, the melting point (commonly the temperature, or range, at which the solid turns liquid) came out at 121 °C. In the case of `COC(=O)c1cccc(NC(=O)NS(=O)(=O)c2ccc(C)cc2)c1` it was 178 to 180 °C.

As for `CCNC(=O)c1sc(S(C)=O)cc1[Si](C)(C)C` (stereo not given), the melting point lay within 71 to 76 °C.

In turn, `COc1cc(C(=O)N2CCN(C(=O)C=C(c3ccccc3)c3ccccc3)CC2)cc(OC)c1OC` registered a melting point of 148 to 150 °C. Then `CCC(NC(=N)NC#N)c1ccccc1` (stereo not given), with 121 to 123 °C. Turning to `CCCCc1nc2c(n1Cc1ccc(-c3ccccc3S(=O)(=O)NC(=O)NCCC)cc1)C(=NO)CCS2`, the melting point worked out at 178 °C. In the case of `CCC(=O)n1c(=O)oc2ccccc21` it was 88 to 90 °C; in that of `O=C(N[C@@H](Cc1ccccc1)C(=O)O)C(CS)C(F)(F)F` (stereo not given in full), 133 to 134 °C. `CCCOC(=O)Nc1nc(=O)n(C2OC(C)C(O)C2O)cc1F` (stereo not given) came in with a melting point of 125 to 126 °C. Take `O=C(c1ccc(Cl)cc1)c1cccc(Br)n1`: the melting point was 83.5 to 84 °C. In the case of `O=S(=O)(Nc1ccc2c(OCc3coc(-c4ccc(Cl)cc4)n3)cccc2c1)C(F)(F)F` it was 198 to 200 °C; in that of `COc1ccc(COCCC(C(=O)O)c2ccccc2)cc1` (stereo not given), 114 to 115 °C; in that of `COc1cc(Cl)nc(N(C=O)c2ccccc2)n1`, 118 to 120 °C. In the case of `CC(C)(S)C1COC(=O)N1` (stereo not given) it was 124 to 126 °C; in that of `CC(C)C[C@@H](CO)NC(=O)[C@H](Cc1c[nH]cn1)N(C(=O)[C@H](Cc1cccc2ccccc12)NC(=O)OCc1ccccc1)C(=O)[C@@H](N)Cc1cccc2ccccc12`, 199 to 200 °C. Then `Fc1cccc(C(F)(F)F)c1N(CC1CC1)C1=NCCN1`, with 126 to 127 °C; and `CN1CCC(NC2=Nc3ccccc3Cn3nnnc32)CC1`, with 112 to 114 °C; and `CON=C1CCC(C)(C)c2cc(C)c(-c3cc(C=C4SC(=O)NC4=O)ccc3N(C)C)cc21`, with 254 to 256 °C.

For the compound `COc1ccc(-c2cc3nc(N(C)C)c4ccccc4c3nn2)cc1`, the melting point was 160 to 162 °C. In the case of `CCCCCCCCCOc1ccc2c(c1)C(CCNC(=O)CCC)CC2` (stereo not given) it was 53 to 55 °C. Then `Cc1nn(CC(=O)c2ccc(Cl)cc2)c(=O)n1-c1ccc(N2CCN(c3ccc(O)cc3)CC2)cc1`, with 252 °C; and `NCCOc1ccc(CC2SC(=O)NC2=O)cc1` (stereo not given), with 175 to 176 °C. Then `CN(c1cccc2cc(-c3ncc(CCC#N)s3)[nH]c12)S(=O)(=O)c1cccs1`, with 207 to 208 °C; and `Cc1cccc2c(Cl)cc(C(F)(Cl)Cl)nc12`, with 90 to 94 °C; and `COc1cccc(C2CCCN(C(=O)N(C)O)C2)c1` (stereo not given), with 96 to 98 °C. `Cc1cc(COc2ccc(Oc3ccccc3)cc2)on1` registered a melting point of 48 to 51 °C. In turn, `O=C1c2ccccc2CN1C1CCN(Cc2ccccc2)CC1` returned a melting point of 116 to 118 °C.

The compound `COc1ccc(F)cc1C(=O)NC1COc2cc(OC)c(S(=O)(=O)NC(=S)NC(C)C)cc2C1` (stereo not given) displayed a melting point of 179 to 180 °C. For `CCOc1cc(OCCCc2cn(-c3cc(C(F)(F)F)ccn3)nc2OCC)ccc1CCC(=O)O`, the melting point is 119 to 120 °C. Then `Cc1cc(C)cc(CCCn2c(=O)c3c(N4CCN(C)CC4)cc(Cl)cc3n(Cc3ccccc3)c2=O)c1`, with 67 to 73 °C; and `COc1cc(COc2nn(Cc3ccccc3)cc2C(=O)O)ccc1OCc1nc(-c2ccco2)oc1C`, with 167 to 168 °C; and `COC(=O)C1=C(CO)NC(C)=C(C(=O)OC(C)C)C1c1ccccc1C#N` (stereo not given), with 134 to 137 °C. In the case of `N#Cc1c(Cl)c(Cl)n(CCl)c1-c1ccc(Cl)c(Cl)c1` it was 153 to 156 °C. Compound `CCCS(=O)(=O)c1ccccc1S(N)(=O)=O` gave a melting point of 122 to 124 °C. Then `CC1(C)Cc2cccc(S(N)(=O)=O)c2O1`, with 160 to 162 °C.
